Tests used:
[1] = dissolution / solvent properties for ingredients of fragrance-comprising preparations; format: physicochemical; conditions: for customary ingredients in fragrance-comprising preparations
Source text: The term “exceptional dissolution properties” refers to the solubility and also the solubilization in the perfumery application, i.e. both in the perfume oil itself, and also in the application matrix, such as soaps, creams, deodorants and others.
“Exceptional” dissolution properties are present for example if virtually all customary substances which can be used in such formulations are soluble in the solvent. “Good” dissolution properties are present if virtually all important substances which are used in such formulations are soluble in this solvent. “Moderate” dissolution properties are present if only a small fraction of the important substances is soluble or dispersible. Such substances, their importance and also the testing of the solubility in solvents are known to the person skilled in the art.

[2] = stability of the ether groups; format: physicochemical

Row | dissolution properties [1] | stability of the ether groups [2] | SMILES | toxicological properties (toxicological assessment)
1 | exceptional | – | CCOC[C@H]1CC[C@H](COCC)CC1 [Compound I-trans, Trans-1,4-Cyclohexanedimethanol Diethyl Ether] | –
2 | – | very high | CCOCC1CCC(COCC)CC1 (stereo not drawn) [Compound I, cyclohexanedimethanol diethyl ether] | toxicologically acceptable
